Marks after values point to notes of the source that are not given here.
Tests used:
Assay type in all cases: in vivo
male ICR mice [1] = test: Muscle relaxant activity, traction test; details: Mus musculus, ip; i.p. administration in dosages 50; 100; 250 and 500 mg/kg
male ICR mice [2] = test: Porsolt forced swim test (FST); details: for Immobility in FST (in words): after preliminary treatment, mice; for Immobilization time: i.p. 100 mg/kg, 1 hour before the test, male ICR mice
male ICR mice [3] = test: Muscle relaxant activity, chimney test; details: Mus musculus, ip; i.p. administration in dosages 50; 100; 250 and 500 mg/kg
male ICR mice [4] = test: Analgesic effect, hot plate test; details: Mus musculus, ip; i.p. administration in dosages 50; 100; 250 and 500 mg/kg
male ICR mice [5] = test: Open field test, locomotor activity; details: for Exploratory activity counts / Vertical activity counts / Horizontal activity counts: male ICR mice
male ICR mice [6] = test: Muscle relaxant activity, rota rod test; details: Mus musculus, ip; i.p. administration in dosages 50; 100; 250 and 500 mg/kg

SMILES | ED50 (male ICR mice [1]) [mg/kg] | Immobility in FST (in words) (male ICR mice [2]) | Immobilization time (male ICR mice [2]) | ED50 (male ICR mice [3]) [mg/kg] | ED50 (male ICR mice [4]) [mg/kg] | Exploratory activity counts (male ICR mice [5]; 30 min after i.p. 50 mg/kg) [counts] | Vertical activity counts (male ICR mice [5]; 30 min after i.p. 50 mg/kg) [counts] | Exploratory activity counts (male ICR mice [5]; 60 min after i.p. 50 mg/kg) [counts] | Vertical activity counts (male ICR mice [5]; 60 min after i.p. 50 mg/kg) [counts] | Exploratory activity counts (male ICR mice [5]; 120 min after i.p. 50 mg/kg) [counts] | Vertical activity counts (male ICR mice [5]; 120 min after i.p. 50 mg/kg) [counts] | Activity at the end of the 120 min observation period relative to S-Carphedon (male ICR mice [5]; i.p. 50 mg/kg) | Animal activity in open field test (in words) (male ICR mice [5]; i.p. 50 mg/kg, 120 min observation period) | ED50 (male ICR mice [6]) [mg/kg] | Horizontal activity counts (male ICR mice [5]; 30 min after i.p. 50 mg/kg) [counts] | Horizontal activity counts (male ICR mice [5]; 120 min after i.p. 50 mg/kg) [counts]
NC(=O)CN1C[C@@H](c2ccccc2)CC1=O [R-Carphedon, N-Carbamoylmethyl-4(R)-phenyl-2-pyrrolidinone] | 456 ± 122 | did not spent any time immobile | 0^## sec | 199 ± 38 | 10 ± 42 | 15.5 ± 2.9 | 10.0 ± 1.5 | 16.4 ± 3.6 | 12.5 ± 3.2 | 17.8 ± 4.7 | 11.6 ± 4.0 | about two times higher | prolonged and stable increase in animal activity | 193 ± 26 |  | 
NC(=O)CN1C[C@H](c2ccccc2)CC1=O [S-Carphedon, N-Carbamoylmethyl-4(S)-phenyl-2-pyrrolidinone] | 548 ± 75 | immobilization in response to stress factor | 110 ± 12 s | 286 ± 78 | 50 ± 63 |  | 7.0 ± 1.6 | 7.8 ± 4.2 | 7.0 ± 2.8 | 11.5 ± 2.8 | 4.9 ± 1.7 |  |  | 459 ± 87 | 56.3 ± 5.7 | 36.4 ± 7.1

— patent US9382203B2, “N-carbamoylmethyl-4-(R)-phenyl-2-pyrrolidinone, method of its preparation and pharmaceutical use” (Joint Stock Company (JSC) “OLAINFARM”, priority 2006, dated 2016)
